Reference: PubChem BioAssay AID588666 (The Scripps Research Institute Molecular Screening Center, 2011)
Active and inactive are the calls of the source.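 How the source made its calls: active means MAPK1 protein level shifted by at least 30% from DMSO-treated cells, either down or up; inactive means shift under 30% either way.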

Target: Mitogen-activated protein kinase 1 (Homo sapiens) (UniProt P28482)
Experiment: MAPK1 protein abundance inhibitors – SW620 cells, chemiluminescent western blot, powder samples, counter-screen for KLF5 inhibitor project, late-stage follow-up (AID 588666)
Conditions: ERK1/2 western blot, 24 h, at 10 µM; for inhibition: stronger effect = higher value; for fold change: measured here: ERK1/2 protein fold change vs DMSO, stronger effect = lower value

Mitogen-activated protein kinase 1 (Homo sapiens), sequence (P28482 whole entry, looked up): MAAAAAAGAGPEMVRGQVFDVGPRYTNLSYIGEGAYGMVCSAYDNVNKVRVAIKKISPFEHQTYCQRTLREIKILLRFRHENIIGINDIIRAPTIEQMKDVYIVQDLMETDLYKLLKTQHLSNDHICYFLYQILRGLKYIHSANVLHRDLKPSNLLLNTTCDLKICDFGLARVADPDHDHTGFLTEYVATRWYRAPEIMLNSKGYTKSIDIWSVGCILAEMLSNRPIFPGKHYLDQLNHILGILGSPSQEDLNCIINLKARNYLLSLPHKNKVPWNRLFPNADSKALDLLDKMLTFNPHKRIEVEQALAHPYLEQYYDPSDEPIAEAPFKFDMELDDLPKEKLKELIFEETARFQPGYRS

SMILES	inhibition	fold change
CN(C(=O)COC(=O)/C=C/c1cccc([N+](=O)[O-])c1)C1CCS(=O)(=O)C1 (stereo unspecified)	14.8% (inactive)	-1.17
CN(C(=O)CNC(=O)/C=C/c1cccc(Cl)c1)C1CCS(=O)(=O)C1 (stereo unspecified)	26.9% (inactive)	-1.37
CN(C(=O)CNC(=O)/C=C/c1cccc(Cl)c1)C1CCS(=O)(=O)CC1	-9.9% (inactive)	1.1
